Measurements from article PMC5560747, “Computational-experimental approach to drug-target interaction mapping: A case study on kinase inhibitors” (PLoS Computational Biology, 2017).

Tests used:
Experiment in all cases: cell-free ADP-Glo Kinase Assay
Type in all cases: biochemical
Conditions in all cases: read-out: Experimental validation pIC50 (converted)
SRC = SRC (Homo sapiens, UniProt P12931)
BRK = BRK (Homo sapiens, UniProt Q13882)
Procedure: (§1) The kinase inhibitors were dissolved to 1X Kinase Buffer with 5% DMSO by transferring 200nL of the buffer using ECHO525 Liquid handler (Labcyte). […] The dissolved kinases and 2.5X kinase buffer controls were transferred at 400nL using ECHO525. […] The 2.5X ATP/substrate working stocks were transferred at 400nL using ECHO525.
(§2) For the ADP detection, 1 μl ADP-Glo reagent was dispensed (Thermo Scientific Multidrop Combi nL). […] Next, 2 μl kinase detection reagent was dispensed with Thermo Scientific Multidrop Combi nL.
(§3) The Kinase Selectivity Profiling System kit assays were performed at least in two individual experiments, each having two replicates.
(§4) IC50 values from all the experiments were obtained with GraphPad Prism 7 (GraphPad Software, Inc. California, USA) using inhibitor vs. response—variable slope (four parameters) analysis. […] X-axis scale was set to log10.

FYN A = FYN A (Homo sapiens, UniProt P06241)
Procedure: as §1, §2, §3, §4

AXL = target: T1, AXL (Homo sapiens, UniProt P30530)
T1 sequence (P30530 26-894): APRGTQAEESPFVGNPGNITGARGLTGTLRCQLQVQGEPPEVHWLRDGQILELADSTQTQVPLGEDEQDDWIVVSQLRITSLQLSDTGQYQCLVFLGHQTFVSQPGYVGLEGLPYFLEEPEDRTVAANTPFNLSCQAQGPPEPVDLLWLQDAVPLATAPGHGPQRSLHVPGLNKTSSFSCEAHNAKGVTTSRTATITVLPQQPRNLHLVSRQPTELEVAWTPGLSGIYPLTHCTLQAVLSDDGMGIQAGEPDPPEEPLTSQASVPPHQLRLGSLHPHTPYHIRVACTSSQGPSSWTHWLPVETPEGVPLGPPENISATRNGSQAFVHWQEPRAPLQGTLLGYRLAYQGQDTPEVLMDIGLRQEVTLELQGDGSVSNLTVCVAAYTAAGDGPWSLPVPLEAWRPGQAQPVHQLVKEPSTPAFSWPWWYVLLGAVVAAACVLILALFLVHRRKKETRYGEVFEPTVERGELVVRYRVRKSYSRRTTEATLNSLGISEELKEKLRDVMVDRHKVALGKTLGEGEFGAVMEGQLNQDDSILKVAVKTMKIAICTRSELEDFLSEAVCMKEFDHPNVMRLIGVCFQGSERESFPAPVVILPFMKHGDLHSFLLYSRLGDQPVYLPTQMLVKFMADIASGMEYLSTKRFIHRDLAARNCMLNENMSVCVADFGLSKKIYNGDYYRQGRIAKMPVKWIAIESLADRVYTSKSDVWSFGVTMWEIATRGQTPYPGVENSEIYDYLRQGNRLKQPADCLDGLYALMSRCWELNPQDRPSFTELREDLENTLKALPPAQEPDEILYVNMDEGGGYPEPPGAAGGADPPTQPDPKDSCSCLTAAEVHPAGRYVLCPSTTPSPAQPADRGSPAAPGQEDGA
Procedure: as §1, §2, §3, §4

Sequence of SRC (P12931 whole entry): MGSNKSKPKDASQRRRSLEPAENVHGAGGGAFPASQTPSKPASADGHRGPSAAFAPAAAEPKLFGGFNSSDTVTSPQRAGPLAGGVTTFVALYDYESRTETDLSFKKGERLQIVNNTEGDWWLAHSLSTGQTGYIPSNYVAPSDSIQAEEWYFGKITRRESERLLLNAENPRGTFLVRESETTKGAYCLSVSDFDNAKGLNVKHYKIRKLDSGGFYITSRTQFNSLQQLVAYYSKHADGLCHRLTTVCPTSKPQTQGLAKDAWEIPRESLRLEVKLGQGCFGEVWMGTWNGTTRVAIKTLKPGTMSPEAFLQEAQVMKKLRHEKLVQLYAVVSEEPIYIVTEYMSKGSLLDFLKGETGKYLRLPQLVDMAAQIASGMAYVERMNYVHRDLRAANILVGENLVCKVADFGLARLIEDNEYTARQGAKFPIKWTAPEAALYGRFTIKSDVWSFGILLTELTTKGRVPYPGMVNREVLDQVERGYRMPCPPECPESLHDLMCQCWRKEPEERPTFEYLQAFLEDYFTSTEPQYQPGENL
Sequence of FYN A (P06241 whole entry): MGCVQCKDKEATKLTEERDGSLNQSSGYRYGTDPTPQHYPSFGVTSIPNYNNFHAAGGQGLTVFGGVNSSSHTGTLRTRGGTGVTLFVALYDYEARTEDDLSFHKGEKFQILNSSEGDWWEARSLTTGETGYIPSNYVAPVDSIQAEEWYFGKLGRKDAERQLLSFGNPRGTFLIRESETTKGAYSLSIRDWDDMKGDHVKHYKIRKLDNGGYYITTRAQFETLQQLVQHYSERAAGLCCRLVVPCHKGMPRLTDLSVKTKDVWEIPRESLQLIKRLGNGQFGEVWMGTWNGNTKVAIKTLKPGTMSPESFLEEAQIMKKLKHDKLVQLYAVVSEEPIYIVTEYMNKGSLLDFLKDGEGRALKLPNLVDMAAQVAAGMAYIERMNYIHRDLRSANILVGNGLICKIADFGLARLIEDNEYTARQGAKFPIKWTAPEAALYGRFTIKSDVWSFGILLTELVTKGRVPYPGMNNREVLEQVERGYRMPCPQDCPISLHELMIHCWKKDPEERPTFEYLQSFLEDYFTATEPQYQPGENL
Sequence of BRK (Q13882 whole entry): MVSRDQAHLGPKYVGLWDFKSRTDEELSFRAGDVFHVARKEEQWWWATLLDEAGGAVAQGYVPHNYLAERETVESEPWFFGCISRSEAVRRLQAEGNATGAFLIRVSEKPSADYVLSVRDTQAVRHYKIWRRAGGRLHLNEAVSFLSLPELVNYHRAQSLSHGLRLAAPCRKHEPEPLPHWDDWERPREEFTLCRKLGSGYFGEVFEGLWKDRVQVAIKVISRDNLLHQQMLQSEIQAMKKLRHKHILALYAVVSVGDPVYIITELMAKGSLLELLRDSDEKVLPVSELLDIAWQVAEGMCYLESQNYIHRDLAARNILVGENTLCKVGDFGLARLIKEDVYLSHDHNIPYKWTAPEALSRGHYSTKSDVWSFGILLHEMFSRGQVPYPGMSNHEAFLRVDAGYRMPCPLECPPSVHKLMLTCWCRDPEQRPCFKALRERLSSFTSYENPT

SMILES: COc1cc2c(Oc3ccc4[nH]c(C)cc4c3F)ncnc2cc1OCCCN1CCCC1 [Cediranib]
- IC50 (SRC): 724 nM
- IC50 (BRK): 166 nM
- IC50 (FYN A): 135 nM
- IC50 (AXL): 3090 nM
